Reference: ChEMBL document CHEMBL1201862, “PubChem BioAssay data set” (2004)
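48-hour exposure; five concentrations; linearly interpolated endpoints. GI50 marks 50% less growth.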 The source made the active and inactive calls. No stated cut-off is given here; in the data, active = GI50 up to about 1.1 µM and inactive = higher.

Columns and labels:
Assay in all cases: inhibition of tumour cell growth, NCI panel, 48 h
IGROV-1 = tested on: IGROV-1
SR = tested on: SR
CAKI-1 = tested on: CAKI-1
SF-539 = tested on: SF-539
SK-MEL-2 = tested on: SK-MEL-2
K562 = tested on: K562
SW-620 = tested on: SW-620
UO-31 = tested on: UO-31
SF-268 = tested on: SF-268
OVCAR-5 = tested on: OVCAR-5
NCI-H226 = tested on: NCI-H226
MDA-MB-231 = tested on: MDA-MB-231
HT-29 = tested on: HT-29
DU-145 = tested on: DU-145
Hs-578T = tested on: Hs-578T
RPMI-8226 = tested on: RPMI-8226
SK-OV-3 = tested on: SK-OV-3
M14 = tested on: M14
T47D = tested on: T47D
OVCAR-4 = tested on: OVCAR-4

Measured: GI50

O=C(O)c1cnc2cc(OCc3ccccc3)ccc2c1O
inactive: IGROV-1 18.3 µM | SR 23 µM | CAKI-1 20.2 µM | SF-539 19 µM | SK-MEL-2 18.5 µM | K562 23.6 µM | SW-620 19.2 µM | UO-31 17.3 µM | SF-268 16 µM | OVCAR-5 27.3 µM | NCI-H226 18.3 µM | MDA-MB-231 20.6 µM | HT-29 19.2 µM | DU-145 18 µM | Hs-578T 20 µM | RPMI-8226 24.8 µM | SK-OV-3 22.1 µM | M14 17 µM | T47D 17.8 µM | OVCAR-4 16.6 µM

CN(O)C(=O)c1ccc(OCc2cccc(Cl)c2)cc1
inactive: IGROV-1 16.7 µM | SR 4.91 µM | CAKI-1 18.5 µM | SF-539 19 µM | SK-MEL-2 34.4 µM | K562 22.6 µM | SW-620 32.8 µM | UO-31 16.9 µM | SF-268 21.2 µM | OVCAR-5 > 62.1 µM | NCI-H226 19.5 µM | MDA-MB-231 > 81.1 µM | HT-29 14.6 µM | DU-145 27.4 µM | Hs-578T 71.3 µM | RPMI-8226 14.8 µM | SK-OV-3 24.3 µM | M14 16.7 µM | T47D 43.1 µM | OVCAR-4 21.6 µM

OC/C=C/[C@H](OCc1ccccc1)[C@H](/C=C/CO)OCc1ccccc1
inactive: IGROV-1 42.5 µM | SR 18.8 µM | CAKI-1 > 100 µM | SF-539 > 100 µM | SK-MEL-2 37.4 µM | K562 24.8 µM | SW-620 39.9 µM | UO-31 64.1 µM | SF-268 40.2 µM | OVCAR-5 > 100 µM | NCI-H226 > 100 µM | MDA-MB-231 50.4 µM | HT-29 24.3 µM | DU-145 81.1 µM | Hs-578T 47.4 µM | RPMI-8226 23.1 µM | SK-OV-3 > 100 µM | M14 76.6 µM | T47D 23.7 µM | OVCAR-4 29.8 µM

COc1ccc(/C(CC2OC(=O)c3ccccc32)=N\NC(=O)C[N+](C)(C)C)cc1 (stereo not given)
inactive: IGROV-1 34.4 µM | SR 18.2 µM | CAKI-1 40.3 µM | SF-539 31.2 µM | SK-MEL-2 23.9 µM | K562 19.2 µM | SW-620 25.5 µM | UO-31 26.5 µM | SF-268 30.5 µM | OVCAR-5 > 100 µM | NCI-H226 21.7 µM | MDA-MB-231 57.3 µM | HT-29 19.2 µM | DU-145 20.5 µM | Hs-578T 36.7 µM | RPMI-8226 15.2 µM | SK-OV-3 38.8 µM | M14 38 µM | T47D 25.8 µM | OVCAR-4 22.6 µM

C=C(O)c1ccccc1C#Cc1ccccc1C(=O)OC
inactive: IGROV-1 > 10 µM | SR > 10 µM | CAKI-1 > 10 µM | SF-539 > 10 µM | SK-MEL-2 > 10 µM | K562 > 10 µM | SW-620 > 10 µM | UO-31 > 10 µM | SF-268 > 10 µM | OVCAR-5 > 10 µM | NCI-H226 > 10 µM | MDA-MB-231 > 10 µM | HT-29 > 10 µM | DU-145 > 10 µM | Hs-578T > 10 µM | RPMI-8226 > 10 µM | SK-OV-3 > 10 µM | M14 > 10 µM | T47D > 10 µM | OVCAR-4 > 10 µM

S=C1SSC2N=CC=CC12 (stereo not given)
inactive: IGROV-1 78.7 µM | SR 45.4 µM | CAKI-1 19.7 µM | SF-539 > 100 µM | SK-MEL-2 > 100 µM | K562 49.1 µM | SW-620 > 100 µM | UO-31 > 100 µM | SF-268 > 100 µM | OVCAR-5 > 100 µM | NCI-H226 > 100 µM | MDA-MB-231 > 100 µM | HT-29 > 100 µM | DU-145 > 100 µM | Hs-578T > 100 µM | RPMI-8226 63.8 µM | SK-OV-3 > 100 µM | M14 85.5 µM | T47D 93.5 µM | OVCAR-4 16.2 µM
